Experimental data as given in patent US20240391931A1 (Bristol-Myers Squibb Company, priority 2021, published 2024).

Legend:
HER2 = target: T1, HER2 (Homo sapiens, UniProt P04626); test: HER2 occupancy assay in BT474 cells; type: cell-based; conditions: concentration at which 50% of HER2 is irreversible bound, read-out: BT474 HER2 Occ
T1 construct: BT474 and N87 cell lines which endogenously overexpress the HER2 wildtype (WT) protein; endogenous in cells; host or cells: BT474, N87
Description: In order to assess free HER2 protein, a biotinylated probe was utilized. BT474, N87, and Ba/F3-HER2YVMA cells were treated with test compound as described for HER2 signaling. After compound treatment, cells were washed three times with cold phosphate buffer saline (PBS, Life Technologies, Carlsbad, CA), and lysed in modified occupancy lysis buffer prepared with an irreversible biotinylated tool compound (1 μM) in 25 mM Tris pH 7.5, 150 mM NaCl, 1% Triton, and supplemented with cOmplete, EDTA-free Protease inhibitor cocktail (Roche), Phosphatase Inhibitor Cocktails 2 and 3 (Sigma-Aldrich), and 1 mM PMSF (Sigma-Aldrich).
To determine % occupancy, lysates were loaded into duplicate plates of the phospho (Tyr1248)/total ErbB2 whole cell lysate MSD kit (Meso-Scale Discovery) and incubated overnight. Plates were washed and incubation with either HER2-sulfoTag (1:50, Meso Scale Discovery) or Strep-Sulfo Tag (1:1000, Meso Scale Discovery), for detection of […]. A standard curve of untreated cells in serial dilution was included in each plate to independently fit streptavidin (Free HER2) and total HER2 MSD signals; non-specific signal (BSA control spots) was subtracted from each well. Free HER2 was then normalized by total HER2 for each sample. The results are reported as % DMSO control. The normalized data was fitted using a sigmoidal curve analysis program (Graph Pad Prism version 6) with variable Hill slope to determine EC50 values. The results are provided in Table 4, under columns titled “BT474-HER2 Occ”, “N87-HER2 Occ”, and “Ba/F3 YVMA-HER2 Occ”. HER2 Occ is the concentration of test compound at which 50% of HER2 is irreversible bound.

HER2YVMA = HER2YVMA (Homo sapiens, UniProt P04626, INS775YVMA); test: HER2 signaling (pHER2) in BEAS2B-HER2YVMA cells; type: cell-based; design: expressed in transfected cells; host or cells: HEK293 (pool), Ba/F3 (clones), BEAS2B (clones); lentiviral vector pCDH-CMV-MCS-EF1-Neo; conditions: read-out: BEAS2B YVMA pHER2 EC50
Description: Cell culture, plasmid cloning, and lentiviral transduction were carried out according to standard procedures. The Human HER2 cDNA construct in pCMV6-Entry for the HER2 wildtype (WT) expression was obtained from Origene. The HER2 cDNA including the 12-nucleotide insertion corresponding to YVMA insertion (HER2YVMA) was codon optimized, synthesized and cloned by GenScript (Piscataway, NJ) in pcDNA3.1. The lentiviral constructs expressing HER2YVMA and HER2 WT were sub-cloned using PCR at System Biosciences (SBI, Mountainview, CA) into lentiviral vectors pCDH-CMV-MCS-EF1-Neo and lentiviral particles were generated.
Engineered lines expressing HER2YVMA and HER2 WT were prepared in HEK293 (human embryonic kidney cells), Ba/F3 (Interleukin 3 (IL3)-dependent murine pro B cell line), and BEAS2B (primary immortalized human bronchial epithelial cell line). […]
HER2 signaling was assessed in BT474 and N87 cell lines which endogenously overexpress the HER2 wildtype (WT) protein, in NCI-H1781 cells which endogenously expresses a HER2 mutant protein containing a VC insertion in the kinase domain (HER2VC or G776delinsVC), and in engineered cell lines transduced to express the Her2 mutant protein containing the YVMA insertion (Hek293-HER2YVMA and BEAS2B-HER2YVMA). […]
HER2 signaling was evaluated using phospho (Tyr1248)/total ErbB2 whole cell lysate MSD plates (Meso-Scale Discovery, Gaithersburg, MD). […]

T1 sequence (P04626 23-1255): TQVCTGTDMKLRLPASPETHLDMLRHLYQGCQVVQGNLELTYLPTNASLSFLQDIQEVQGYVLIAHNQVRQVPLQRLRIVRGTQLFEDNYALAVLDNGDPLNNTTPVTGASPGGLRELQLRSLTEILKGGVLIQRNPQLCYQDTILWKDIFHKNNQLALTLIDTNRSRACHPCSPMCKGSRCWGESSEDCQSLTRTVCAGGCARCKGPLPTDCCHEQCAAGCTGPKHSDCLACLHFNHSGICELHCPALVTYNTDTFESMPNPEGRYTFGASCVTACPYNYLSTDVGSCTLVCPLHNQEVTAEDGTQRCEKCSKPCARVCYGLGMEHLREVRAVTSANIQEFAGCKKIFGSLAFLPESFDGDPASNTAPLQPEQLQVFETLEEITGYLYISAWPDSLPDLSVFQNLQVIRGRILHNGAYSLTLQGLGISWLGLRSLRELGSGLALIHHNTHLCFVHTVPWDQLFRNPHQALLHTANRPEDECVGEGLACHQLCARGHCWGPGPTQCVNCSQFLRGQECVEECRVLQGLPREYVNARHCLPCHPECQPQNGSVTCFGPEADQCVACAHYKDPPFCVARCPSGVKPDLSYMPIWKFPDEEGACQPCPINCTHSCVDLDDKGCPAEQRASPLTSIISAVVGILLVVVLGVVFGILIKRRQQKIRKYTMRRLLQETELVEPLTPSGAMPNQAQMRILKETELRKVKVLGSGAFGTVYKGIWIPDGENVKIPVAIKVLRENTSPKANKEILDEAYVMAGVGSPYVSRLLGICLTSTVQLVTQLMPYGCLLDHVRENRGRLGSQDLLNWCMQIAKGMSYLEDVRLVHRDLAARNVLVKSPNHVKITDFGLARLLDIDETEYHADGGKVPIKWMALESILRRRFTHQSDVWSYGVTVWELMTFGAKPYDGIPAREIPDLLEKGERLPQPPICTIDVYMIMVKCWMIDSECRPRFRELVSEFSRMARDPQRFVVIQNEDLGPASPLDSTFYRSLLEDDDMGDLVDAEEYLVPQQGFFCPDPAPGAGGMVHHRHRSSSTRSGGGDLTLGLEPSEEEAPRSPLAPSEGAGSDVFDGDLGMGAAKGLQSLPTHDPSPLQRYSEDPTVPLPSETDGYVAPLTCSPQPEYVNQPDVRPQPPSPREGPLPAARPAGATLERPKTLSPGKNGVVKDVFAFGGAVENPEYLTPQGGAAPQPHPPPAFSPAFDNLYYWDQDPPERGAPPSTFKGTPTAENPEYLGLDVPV
HER2YVMA, sequence (P04626 with tags, fused parts or gaps INS775YVMA): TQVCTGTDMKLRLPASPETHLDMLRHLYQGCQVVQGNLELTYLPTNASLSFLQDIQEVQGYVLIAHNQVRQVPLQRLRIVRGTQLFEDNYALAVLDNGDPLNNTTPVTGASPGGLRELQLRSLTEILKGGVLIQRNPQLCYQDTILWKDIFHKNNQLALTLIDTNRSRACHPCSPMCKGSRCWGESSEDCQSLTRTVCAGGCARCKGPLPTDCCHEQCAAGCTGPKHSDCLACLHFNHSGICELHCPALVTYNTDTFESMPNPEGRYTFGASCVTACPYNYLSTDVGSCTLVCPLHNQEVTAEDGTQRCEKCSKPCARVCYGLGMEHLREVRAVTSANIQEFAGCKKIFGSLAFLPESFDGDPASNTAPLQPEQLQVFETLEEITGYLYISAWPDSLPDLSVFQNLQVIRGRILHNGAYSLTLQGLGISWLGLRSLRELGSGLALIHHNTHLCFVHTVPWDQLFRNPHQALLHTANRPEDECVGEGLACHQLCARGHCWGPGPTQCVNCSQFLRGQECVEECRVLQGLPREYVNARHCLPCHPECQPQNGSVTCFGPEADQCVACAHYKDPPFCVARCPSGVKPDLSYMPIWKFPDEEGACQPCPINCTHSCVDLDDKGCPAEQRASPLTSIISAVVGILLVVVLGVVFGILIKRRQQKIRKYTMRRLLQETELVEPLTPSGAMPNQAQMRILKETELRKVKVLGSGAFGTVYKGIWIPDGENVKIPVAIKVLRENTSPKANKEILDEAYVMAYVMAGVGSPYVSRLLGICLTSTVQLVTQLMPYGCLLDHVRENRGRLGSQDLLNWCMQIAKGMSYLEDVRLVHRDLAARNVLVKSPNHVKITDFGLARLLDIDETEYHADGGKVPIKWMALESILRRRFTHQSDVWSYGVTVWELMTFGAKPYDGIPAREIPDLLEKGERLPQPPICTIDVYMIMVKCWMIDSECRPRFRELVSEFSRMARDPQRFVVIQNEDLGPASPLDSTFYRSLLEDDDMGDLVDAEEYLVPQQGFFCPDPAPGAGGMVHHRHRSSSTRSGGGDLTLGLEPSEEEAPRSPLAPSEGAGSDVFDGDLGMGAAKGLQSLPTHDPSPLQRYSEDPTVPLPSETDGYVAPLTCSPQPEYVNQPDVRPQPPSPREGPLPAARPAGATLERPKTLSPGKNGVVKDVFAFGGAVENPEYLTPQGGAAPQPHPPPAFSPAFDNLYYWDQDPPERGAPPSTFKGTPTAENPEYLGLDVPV

SMILES	EC50 (HER2) [nM]	EC50 (HER2YVMA) [nM]
Cc1ccc(Oc2ccc(Nc3ncnc4sc5c(c34)CCN(C(=O)/C=C/CN(C)C)C5)cc2C)cn1 [Compound 8, (E)-4-(Dimethylamino)-1-(4-((3-methyl-4-((6-methylpyridin-3-yl)oxy)phenyl)amino)-5,6-dihydropyrido[4′,3′:4,5]thieno[2,3-d]pyrimidin-7(8H)-yl)but-2-en-1-one]	< 100	< 100
Cc1cc(Nc2ncnc3sc4c(c23)CCN(C(=O)/C=C/CN2CCOCC2)C4)ccc1Oc1ccc2ncnn2c1 [Compound 12]	< 100	
